# Test results: patent publication US8377935B2, “Substituted aminopropenyl piperidine or morpholine derivatives as novel inhibitors of histone deacetylase” (Janssen Pharmaceutica N.V., priority 2005, dated 2013)
# Like-named read-outs stand apart in the source and are kept apart here.
# Columns and labels:
# [1] = test system: A2780 ovarian carcinoma cells; assay: Determination of antiproliferative activity on A2780 cells (MTT); type: cell-based; conditions: Homo sapiens, 96 h, four days of incubation, read-out: Cellular activity pIC50 (converted)
# Procedure: Cellular activity of the compounds of formula (I) was determined on A2780 tumour cells using a colorimetric assay for cell toxicity or survival (Mosmann Tim, Journal of Immunological Methods 65:55-63, 1983)(see example C.2).
# All compounds tested were dissolved in DMSO and further dilutions were made in culture medium. Final DMSO concentrations never exceeded 0.1% (v/v) in cell proliferation assays. Controls contained A2780 cells and DMSO without compound and blanks contained DMSO but no cells. MTT was dissolved at 5 mg/ml in PBS. A glycine buffer comprised of 0.1 M glycine and 0.1 M NaCl buffered to pH 10.5 with NaOH (1 N) was prepared (all reagents were from Merck).
# The human A2780 ovarian carcinoma cells (a kind gift from Dr. T. C. Hamilton [Fox Chase Cancer Centre, Pennsylvania, USA]) were cultured in RPMI 1640 medium supplemented with 2 mM L-glutamine, 50 μg/ml gentamicin and 10% fetal calf serum. Cells were routinely kept as monolayer cultures at 37° C. in a humidified 5% CO2 atmosphere. Cells were passaged once a week using a trypsin/EDTA solution at a split ratio of 1:40. All media and supplements were obtained from Life Technologies. Cells were free of mycoplasma contamination as determined using the Gen-Probe Mycoplasma Tissue Culture kit (supplier: BioMerieux).
# Cells were seeded in NUNC™ 96-well culture plates (Supplier: Life Technologies) and allowed to adhere to the plastic overnight. Densities used for plating were 1500 cells per well in a total volume of 200 μl medium. After cell adhesion to the plates, medium was changed and drugs and/or solvents were added to a final volume of 200 μl. Following four days of incubation, medium was replaced by 200 μl fresh medium and cell density and viability was assessed using an MTT-based assay. To each well, 25 μl MTT solution was added and the cells were further incubated for 2 hours at 37° C. The medium was then carefully aspirated and the blue MTT-formazan product was solubilized by addition of 25 μl glycine buffer followed by 100 μl of DMSO. […] Within an experiment, the results for each experimental condition are the mean of 3 replicate wells. For initial screening purposes, compounds were tested at a single fixed concentration of 10^−6 M. For active compounds, the experiments were repeated to establish full concentration-response curves. For each experiment, controls (containing no drug) and a blank incubation (containing no cells or drugs) were run in parallel. The blank value was subtracted from all control and sample values. For each sample, the mean value for cell growth (in absorbance units) was expressed as a percentage of the mean value for cell growth of the control. […] Herein the effects of test compounds are expressed as pIC50 (the negative log value of the IC50-value)(see Table F-3).
# [2] = target: histone deacetylase (HeLa nuclear extracts); assay: In vitro assay for inhibition of histone deacetylase (HDAC Fluorescent Activity Assay, Fluor de Lys); type: biochemical; conditions: HeLa nuclear extracts 60 μg/ml, 75 μM Fluor de Lys substrate
# Description: The in vitro assay for inhibition of histone deacetylase (see example C.1) measures the inhibition of HDAC enzymatic activity obtained with the compounds of formula (I).
# The HDAC Fluorescent Activity Assay/Drug Discovery Kit of Biomol (cat.No: AK-500-0001) was used. The HDAC Fluorescent Activity Assay is based on the Fluor de Lys (Fluorogenic Histone deAcetylase Lysyl) substrate and developer combination. The Fluor de Lys substrate, comprises an acetylated lysine side chain. Deacetylation of the substrate sensitizes the substrate so that, in the second step, treatment with the Fluor de Lys developer produces a fluorophore.
# HeLa nuclear extracts (supplier: Biomol) were incubated at 60 μg/ml with 75 μM of substrate. The Fluor de Lys substrate was added in a buffer containing 25 mM Tris, 137 mM. NaCl, 2.7 mM KCl and 1 mM MgCl2.6H2O at pH 7.4. After 30 min, 1 volume of the developer was added. The fluorophore was excited with 355 nm light and the emitted light (450 nm) was be detected on a fluorometric plate reader.
# For each experiment, controls (containing HeLa nuclear extract and buffer), a blank incubation (containing buffer but no HeLa nuclear extract) and samples (containing compound dissolved in DMSO and further diluted in buffer and HeLa nuclear extract) were run in parallel. In first instance, compounds were tested at a concentration of 10^−5M. […] All sample were tested 4 times. In each test the blank value was substracted from both the control and the sample values. The control sample represented 100% of substrate deactylation. For each sample the fluorescence was expressed as a percentage of the mean value of the controls. […] Herein the effects of test compounds are expressed as pIC50 (the negative log value of the IC50-value) (see Table F-3).
# [3] = Solubility/stability (chemiluminescent nitrogen detector); type: physicochemical; conditions: water
# Description: The solubility of a compound measures the ability of a compound to stay in solution. The solubility of a compound at different pH's can be measured with the use of a chemiluminescent nitrogen detector (see example C.3).
# The solubility of a compound, at different pH's, can be measured with the use of a chemiluminescent nitrogen detector.
# [4] = not given; remark: listed apart in the source
# [5] = Metabolic stability with rat hepatocytes cell culture; type: in vitro ADME; conditions: rat hepatocyte cell cultures, 5 μM
# Description: Metabolism of drugs means that a lipid-soluble xenobiotic or endobiotic compound is enzymatically transformed into (a) polar, water-soluble, and excretable metabolite(s). The major organ for drug metabolism is the liver. […] However, some metabolites may have enhanced activity or toxic effects. Thus drug metabolism may include both “detoxication” and “toxication” processes. One of the major enzyme systems that determine the organism's capability of dealing with drugs and chemicals is represented by the cytochrome P450 monooxygenases, which are NADPH dependent enzymes. Metabolic stability of compounds can be determined in vitro with the use of subcellular human tissue (see example C.5.a.). Here metabolic stability of the compounds is expressed as % of drug metabolised after 15 minutes incubation of these compounds with microsomes. Quantitation of the compounds was determined by LC-MS analysis. Metabolic stability of compounds can also be determined by calculating the half live of compounds in rat hepatocyte cells (see example C.5.b.). […]
# Samples were prepared for LC-MS by addition of two volumes of DMSO. […] Of the resulting supernatant 50 μl was analysed by LC-MS. […]
# Total injection volume of samples was 50 μL. […] The mass spectrometer was operated in positive ion mode in SIM adjusted to the mass of […] with a scan width of 1 Da for quantification purposes. […]
SMILES,IC50 [1],Enzyme activity pIC50 [2],melting point,further results
CC(=O)N(CC1CCN(c2ncc(C(=O)NO)cn2)CC1)C(C)/C=C/c1ccccc1 (stereo not shown) [Compound 4],158 nM,8.7,100 °C,solubility [3]: > 100 µg/mL
O=C(NO)c1cnc(N2CCOC(CNC(/C=C/c3ccccc3)CO)C2)nc1 (stereo not shown) [Compound 6],79.4 nM,8.1,111 °C,
CC(/C=C/c1ccccc1)N(CC1CCN(c2ncc(C(=O)NO)cn2)CC1)S(C)(=O)=O (stereo not shown) [Compound 8],200 nM,9.5,110 °C,
Nc1ccccc1NC(=O)c1cnc(N2CCOC(CNC(/C=C/c3ccccc3)CO)C2)nc1 (stereo not shown) [Compound 7],1260 nM,6.0,95 °C,
CCCO [propanol],,,,"% metabolism ([4]; 15 min incubation with active microsomes, compound 5 μM): 25%"
Nc1ccccc1NC(=O)c1cnc(N2CCC(CNC(/C=C/c3ccccc3)CO)CC2)nc1 (stereo not shown) [Compound 5],3160 nM,6.0,178 °C,
COc1cc(N)c(Cl)cc1C(=O)NC1CCN(CCCOc2ccc(F)cc2)CC1OC (stereo not shown) [Cisapride],,,,"% metabolism ([4]; human, 15 min, 5 μM): 45%"
CC(/C=C/c1ccccc1)NCC1CCN(c2ncc(C(=O)NO)cn2)CC1 (stereo not shown) [Compound 3],50.1 nM,8.3,155 °C,solubility [3]: > 1000 µg/mL
"O=C(NO)c1cnc(N2CCN(S(=O)(=O)c3ccc4ccccc4c3)CC2)nc1 [Compound R306465, reference compound]",,,,in vitro half-live [5]: 8 min
O=C(NO)c1cnc(N2CCC(NC(/C=C/c3ccccc3)CO)CC2)nc1 (stereo not shown) [Compound 2],158 nM,8.0,,solubility [3]: > 500 µg/mL
O=C(NO)c1cnc(N2CCC(NC(/C=C/c3ccccc3)CO)CC2)nc1 (stereo not shown) (hydrate or solvate) [Compound 2],,,109 °C,
O=C(NO)c1cnc(N2CCC(CNC(/C=C/c3ccccc3)CO)CC2)nc1 (stereo not shown) (hydrate or solvate) [Compound 1],,,196 °C,
